According to patent US7317000B2, “Glucose-dependent insulins” (Novo Nordisk A/S, priority 2001, dated 2008):

Target: solubilized human insulin receptor (Homo sapiens, UniProt P06213)
Assay: Insulin receptor binding by competition with 125I-TyrA14 human insulin (scintillation counting)
Conditions: antibody-captured solubilized receptor on Scintiplates

solubilized human insulin receptor, sequence (P06213 28-758 limits assumed): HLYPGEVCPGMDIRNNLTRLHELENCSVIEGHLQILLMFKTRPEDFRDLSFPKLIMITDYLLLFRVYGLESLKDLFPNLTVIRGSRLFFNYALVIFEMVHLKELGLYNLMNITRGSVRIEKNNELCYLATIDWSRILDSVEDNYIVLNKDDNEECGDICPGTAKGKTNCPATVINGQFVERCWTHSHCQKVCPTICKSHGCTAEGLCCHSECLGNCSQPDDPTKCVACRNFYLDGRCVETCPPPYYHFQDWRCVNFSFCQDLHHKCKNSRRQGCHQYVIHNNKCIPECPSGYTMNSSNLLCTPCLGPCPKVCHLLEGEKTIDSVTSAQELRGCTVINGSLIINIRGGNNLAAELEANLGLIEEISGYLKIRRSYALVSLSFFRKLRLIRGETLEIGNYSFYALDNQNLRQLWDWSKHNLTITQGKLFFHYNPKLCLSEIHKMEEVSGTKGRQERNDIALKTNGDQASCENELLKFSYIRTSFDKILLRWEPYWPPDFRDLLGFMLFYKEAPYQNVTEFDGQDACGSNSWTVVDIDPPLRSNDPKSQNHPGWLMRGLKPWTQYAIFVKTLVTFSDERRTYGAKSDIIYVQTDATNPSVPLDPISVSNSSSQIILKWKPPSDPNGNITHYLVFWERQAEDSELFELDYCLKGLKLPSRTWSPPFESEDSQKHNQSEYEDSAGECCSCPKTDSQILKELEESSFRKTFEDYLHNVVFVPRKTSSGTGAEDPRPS
solubilized human insulin receptor, sequence (P06213 763-1382 partner limits assumed): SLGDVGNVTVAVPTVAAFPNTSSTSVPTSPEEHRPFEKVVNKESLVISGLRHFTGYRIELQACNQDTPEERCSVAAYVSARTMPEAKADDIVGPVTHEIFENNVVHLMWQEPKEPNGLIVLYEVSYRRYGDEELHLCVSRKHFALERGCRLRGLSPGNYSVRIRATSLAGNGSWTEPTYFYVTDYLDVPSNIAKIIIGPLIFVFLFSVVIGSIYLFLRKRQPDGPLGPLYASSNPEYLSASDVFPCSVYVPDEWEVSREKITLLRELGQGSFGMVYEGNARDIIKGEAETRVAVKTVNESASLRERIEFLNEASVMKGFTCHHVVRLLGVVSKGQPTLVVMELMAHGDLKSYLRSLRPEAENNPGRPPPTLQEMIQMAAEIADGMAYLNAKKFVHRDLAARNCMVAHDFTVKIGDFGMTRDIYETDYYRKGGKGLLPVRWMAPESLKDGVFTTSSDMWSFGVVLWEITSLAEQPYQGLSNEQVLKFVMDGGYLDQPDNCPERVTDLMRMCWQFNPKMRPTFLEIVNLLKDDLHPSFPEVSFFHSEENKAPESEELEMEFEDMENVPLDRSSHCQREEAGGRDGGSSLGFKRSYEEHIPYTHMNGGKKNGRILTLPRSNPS

Kd | Substance
0.016 nM | Lys^B29-(N^ε(γ-L-glutamyl-α-D-glucamide, N^α-(3-borono-5-nitro-benzoyl)) des(B30) human insulin [Compound 10]
0.015 nM | Lys^B29(N^ε-(4-carboxyphenylalanine-N-methyl-glucamide), N^α-(4-borono-phenylsulfonyl)) des(B30), human insulin [Compound 23]
